Experimental data from patent US11473045B2, “Device for in-vitro modelling in-vivo tissues of organs” (priority 2013, dated 2022).

Test system: Lung bronchial epithelial cells (16HBEo-)
Description: FIG. 14 illustrates the effects of a physiologic (10% linear), cyclic mechanical strain on the permeability of an epithelial barrier. Lung bronchial epithelial cells (16HBEo-) were seeded at a density of 250'000 cells/cm^2 onto the fibronectin-coated culturing membrane. The cells were allowed to adhere and to grow for 72 h. The cells were exposed to cyclic strain (10% linear, 0.2 Hz) for 19 h, whereas the control was kept at static conditions. […] After 2 h of incubation, the permeability of each molecule was measured with a fluorescence multiplate reader (Tecan Infinite M1000; Ex:460/Em:515 & Ex:553/Em:627).

Substance: FITC-sodium
- transmembrane permeability of stretched cells compared to control cells in static conditions: significantly increased transmembrane permeability
